For test [1], the system named is Mycobacterium tuberculosis. Nature of the test: In vivo antimycobacterial activity against Mycobacterium tuberculosis H37Rv infected in BALB/c mouse assessed as reduction in bacterial load at 200 mg/kg, po for 2 weeks. Type of test: functional.
The test system of test [2] is Mycobacterium tuberculosis. In words: In vivo antimycobacterial activity against Mycobacterium tuberculosis H37Rv infected in BALB/c mouse assessed as reduction in bacterial load at 300 mg/kg, po for 5 days. The test is classed as functional. To be noted: time 5 day.
For test [3], the system named is Mycobacterium tuberculosis. Nature of the test: Antitubercular activity against Mycobacterium tuberculosis H37Rv assessed as bacterial growth inhibition incubated for 6 days by MABA analysis. The settings on record: 144 h, time 6 day. Type of test: functional. A general note: The colour change of resazurin is a common sign of viable cells or microbes.
Test [4] has as its system Mycobacterium tuberculosis. Nature of the test: Antitubercular activity against Mycobacterium tuberculosis H37Rv expressing the luxABCDE operon infected in human THP-1 cells assessed as reduction in intracellular bacterial load incubated for 72 hrs by luminescence analysis. Type of test: functional, organism-based. To be noted: THP-1, 72 h.
Test [5] has as its system Mycobacterium tuberculosis. Nature of the test: Antitubercular activity against Mycobacterium tuberculosis H37Rv expressing the luxABCDE operon assessed as bacterial growth inhibition incubated for 28 hrs in aerobic condition by luminescence analysis. Type of test: functional.
The test system of test [6] is Mycobacterium tuberculosis. In words: Antitubercular activity against Mycobacterium tuberculosis H37Rv expressing the luxABCDE operon assessed as bacterial growth inhibition incubated for 5 days in low oxygen condition by LORA Assay. The test is classed as functional. The settings on record: 120 h, time 5 day.

As usually defined, the MIC is the smallest concentration in the dilution series that meets the test's criterion for growth inhibition. What is called IC50 is the concentration that gives 50% inhibition.

Each structure is given as a SMILES string. In brackets after ≈: the same amount, converted by molar mass.

`CNC(=O)c1c(-c2ccc(O)cc2)oc2ccc(O)c(CN3CCCCC3)c12`: the Activity in test [1] is 6.8 log10CFU; in test [2] it was 7 log10CFU.

`CCOC(=O)c1c(NC(=O)c2c(F)c(F)c(F)c(F)c2F)sc2c1CCN(CC)C2`: the MIC in test [3] was 0.69 µM (≈ 0.309 µg/mL); in test [5], 0.23 µM (≈ 0.103 µg/mL); in test [6], > 200 µM. Also, the IC50 in test [4] stood at 5.6 µM.
